Experimental data from patent US20070249709A1, “Crystal forms of (S)-(8(2,6-dichlorophenyl)-6-fluoro-2,3-dihydro benzo[b][1,4]dioxin-2-yl)methanamine hydrochloride salt” (Wyeth, priority 2006, published 2007).
“Also recorded” adds a separate entry of the source. Where a name gives a salt, the structure may show the parent alone.

Legend:
Format in all cases: physicochemical
[1] = Slurry of a mixture of Form I and Form III in a solvent, crystal form by XRPD/DSC; details: for Final Form, Slurry @ RT: about 2 days
Description: A mixture of Form I and Form III (2θ-50 wt % of Form III) was slurried in a solvent (see Table 5) with stirring at room temperature for about 2 days. The slurry was then filtered at room temperature. The solid was dried at 50° C. under vacuum for overnight. The solid obtained by the filtration was characterized by XRPD both before and after the drying at 50° C.

[2] = Heating of a mixture of Form I and Form III
Description: A mixture of Form I and Form III (2θ-50 wt % of Form III) was heated to 110° C. at ambient pressure and kept at this temperature and pressure for 4 hours.
A mixture of Form I and Form III (2θ-50 wt % of Form III) was placed in an oven at 50° C. and under vacuum for 72 hours.

[3] = Solution mediated transformation (reslurry stability experiments at 25° C.); details: for Stability on slurrying (summary of Table 6): water or organic solvent, hydrochloride
Source text: The mixtures were then filtered and the solids obtained were characterized by one or more methods of XRPD, DSC and TGA.

[4] = Thermal stability of crystal forms under vacuum and 50° C.; details: vacuum
Description: Forms I, II and III were placed in oven at 50° C. and under vacuum to assess their thermal stability.

[5] = Hygroscopicity by dynamic vapor sorption (DVS); details: for Reversibility of DVS mass change / Crystal form stability at high humidity (DVS): hydrochloride; for Crystal form stability at high humidity (DVS): high RH
Source text: The hygroscopicity (the ability to absorb water vapor from the surrounding atmosphere) of Forms I and II was explored by dynamic vapor sorption (DVS) experiments. […] When RH was scanned from 70% to 100%, significant mass change was observed (up to about 4.5%). […] When RH continued to be scanned from 50% to 0%, the sample lost water (weight). […] A second cycle of scanning indicated a new absorption behavior when RH was raised from 50% to 100%.
The starting RH was about 50%, and only about 1% of mass change was observed when RH was scanned to 100% RH. When RH was scanned back to 50%, the mass change appeared reversible. The mass change was very slow when RH continued to be scanned from 50% to 10%. When RH was scanned from 10% to 0%, the sample lost about 2.7% of mass (water).

[6] = Grinding test; details: manually ground, ambient conditions; hydrochloride
Source text: Samples of Form I and Form II were manually ground and the resulting powders were characterized by one or more methods of XRPD, DSC and TGA.

[7] = RH scanned from 100% back to 50%, room temperature

With `NC[C@H]1COc2cc(F)cc(-c3c(Cl)cccc3Cl)c2O1` [I & III, (S)-(8-(2,6-dichlorophenyl)-6-fluoro-2,3-dihydrobenzo[b][1,4]dioxin-2-yl)methanamine hydrochloride] as the molecule, how does the “Final Form, Slurry @ 50° C.” value ([1]; Isopropyl acetate) read?
The value was “by DSC (I and minor III)”.

And the “Final Form, Slurry @ RT” value ([1]; Isopropyl acetate)?
Its value is “DSC (I and minor III)”.

What about the “Final Form, Slurry @ RT” value ([1]; Toluene) of the same molecule?
The value was “DSC (I and minor III)”.

And the “Resulting solid form (XRPD)” value ([2]; 110° C., ambient pressure, 4 hours)?
Its value is “anhydrous Form I”.

And the “Resulting solid form (XRPD)” value ([2]; oven at 50° C., under vacuum, 72 hours)?
Its value is “anhydrous Form I”.

Which results are given for `NC[C@H]1COc2cc(F)cc(-c3c(Cl)cccc3Cl)c2O1` [Form II, (S)-(8-(2,6-dichlorophenyl)-6-fluoro-2,3-dihydrobenzo[b][1,4]dioxin-2-yl)methanamine hydrochloride]?
Final form, Sample from wet filter cake ([3]; reslurry in tBME, 30 mins): I + II; Stability on slurrying (summary of Table 6) [3]: stable in water; Relative thermal stability (retention of crystal lattice integrity) [4]: more stable than Form III; Final Form ([4]; 72 hr): Form II; DVS mass (water) loss ([5]; RH scanned from 10% to 0%, room temperature): about 2.7%; Reversibility of DVS mass change [5, 7]: reversible; DVS mass change ([5]; RH scanned from about 50% to 100%, room temperature (FIG. 8)): about 1%; Crystal form stability at high humidity (DVS) ([5]; room temperature): substantially stable even under high humidity; Solid form After grinding [6]: did not lose its crystal structure; also recorded: Form II

With `NC[C@H]1COc2cc(F)cc(-c3c(Cl)cccc3Cl)c2O1` [Form I, (S)-(8-(2,6-dichlorophenyl)-6-fluoro-2,3-dihydrobenzo[b][1,4]dioxin-2-yl)methanamine hydrochloride] as the molecule, how does the “Stability on slurrying (summary of Table 6)” value [3] read?
The value was “stable in organic solvents”.

And the “Relative thermal stability (retention of crystal lattice integrity)” value [4]?
The value was “more stable than Form III”.

What about the “Final Form” value ([4]; 48 hr) of the same molecule?
The value was “Form I”.

What about the DVS mass change ([5]; RH from about 50% to 70%, room temperature (FIG. 3)) of the same molecule?
Its DVS mass change is “little mass change”.

What about the “Water absorption (DVS)” value ([5]; RH raised from 0% only to about 70% (FIG. 4)) of the same molecule?
Its value is “absorbed very little water”.

What about the DVS mass change ([5]; RH scanned from 70% to 100%, room temperature) of the same molecule?
Its DVS mass change is “up to 4.5%”.

And the “DVS mass change remaining” value [5, 7]?
Its value is “about 2.7%”.

And the “Reversibility of DVS mass change” value [5, 7]?
Its value is “substantially irreversible”.

And the “Crystal form stability at high humidity (DVS)” value ([5]; room temperature)?
Its value is “may be converted into another form at high RH”.

What about the “Solid form After grinding” value [6] of the same molecule?
The value was “some of Form I is changed into Form III”.

Which “Stability on slurrying (summary of Table 6)” value [3] does the source give for `NC[C@H]1COc2cc(F)cc(-c3c(Cl)cccc3Cl)c2O1` [Form III, (S)-(8-(2,6-dichlorophenyl)-6-fluoro-2,3-dihydrobenzo[b][1,4]dioxin-2-yl)methanamine hydrochloride] here?
The value was “less stable under some conditions”.

And the “Final Form” value ([4]; 20 hr)?
The value was “Form I + Form III”.
